Where two headings read alike, the source gives them in different places.
Legend:
Assay in all cases: biochemical
Set-up in all cases: DiscoveRx KINOMEscan active site-directed competition binding; percent of control kinase bound to immobilised ligand
HIPK2 = HIPK2 (Homo sapiens, UniProt Q9H2X6)
GRK7 = molecular target: T1, GRK7 (Homo sapiens, UniProt Q8WTQ7)
T1 sequence (Q8WTQ7 1-553): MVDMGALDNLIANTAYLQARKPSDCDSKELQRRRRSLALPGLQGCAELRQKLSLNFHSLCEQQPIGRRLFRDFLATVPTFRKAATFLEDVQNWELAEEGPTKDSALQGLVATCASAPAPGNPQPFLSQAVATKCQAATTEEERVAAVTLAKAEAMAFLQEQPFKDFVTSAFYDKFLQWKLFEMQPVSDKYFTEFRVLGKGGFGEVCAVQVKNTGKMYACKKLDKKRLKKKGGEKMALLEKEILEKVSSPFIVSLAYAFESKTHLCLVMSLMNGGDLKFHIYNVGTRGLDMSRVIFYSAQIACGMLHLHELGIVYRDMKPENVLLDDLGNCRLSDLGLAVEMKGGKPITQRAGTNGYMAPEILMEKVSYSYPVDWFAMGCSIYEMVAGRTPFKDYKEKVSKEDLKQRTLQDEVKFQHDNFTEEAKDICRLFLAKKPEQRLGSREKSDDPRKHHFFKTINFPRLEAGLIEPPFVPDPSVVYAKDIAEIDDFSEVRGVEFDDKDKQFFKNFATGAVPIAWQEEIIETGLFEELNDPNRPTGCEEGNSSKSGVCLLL

EPHB4 = molecular target: T2, EPHB4 (Homo sapiens, UniProt P54760)
T2 sequence (P54760 1-987): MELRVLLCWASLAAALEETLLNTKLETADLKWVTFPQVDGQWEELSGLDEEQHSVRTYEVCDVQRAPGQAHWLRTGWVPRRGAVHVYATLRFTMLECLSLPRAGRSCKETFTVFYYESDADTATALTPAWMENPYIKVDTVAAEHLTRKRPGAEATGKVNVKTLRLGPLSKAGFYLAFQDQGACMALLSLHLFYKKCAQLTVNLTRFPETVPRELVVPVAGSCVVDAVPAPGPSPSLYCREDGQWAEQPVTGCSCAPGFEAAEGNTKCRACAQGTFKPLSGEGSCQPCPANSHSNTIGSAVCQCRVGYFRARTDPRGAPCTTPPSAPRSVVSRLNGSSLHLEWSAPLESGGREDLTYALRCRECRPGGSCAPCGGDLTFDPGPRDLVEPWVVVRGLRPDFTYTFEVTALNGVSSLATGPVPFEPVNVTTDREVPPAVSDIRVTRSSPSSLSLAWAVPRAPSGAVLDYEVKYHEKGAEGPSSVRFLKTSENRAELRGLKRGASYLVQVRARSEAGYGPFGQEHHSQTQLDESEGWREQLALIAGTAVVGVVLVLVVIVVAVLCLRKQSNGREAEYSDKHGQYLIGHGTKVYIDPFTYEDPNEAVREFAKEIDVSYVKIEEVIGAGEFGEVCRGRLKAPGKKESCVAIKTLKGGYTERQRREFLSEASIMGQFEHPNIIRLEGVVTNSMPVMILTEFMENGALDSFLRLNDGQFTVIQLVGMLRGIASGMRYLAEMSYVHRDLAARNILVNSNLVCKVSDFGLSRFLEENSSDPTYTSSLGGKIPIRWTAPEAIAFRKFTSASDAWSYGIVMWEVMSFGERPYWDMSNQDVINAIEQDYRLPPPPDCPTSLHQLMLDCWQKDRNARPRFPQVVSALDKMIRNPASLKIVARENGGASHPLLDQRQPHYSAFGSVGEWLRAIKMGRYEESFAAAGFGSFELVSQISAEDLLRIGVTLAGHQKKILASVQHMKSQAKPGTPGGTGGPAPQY

LCK = LCK (Homo sapiens, UniProt P06239)
[1] = molecular target: T3, ABL1(Q252H)-nonphosphorylated (Homo sapiens, UniProt P00519, Q252H)
T3 construct: nonphosphorylated

IKK-epsilon = molecular target: T4, IKK-epsilon (Homo sapiens, UniProt Q14164)
T4 construct: gene IKBKE
T4 sequence (Q14164 1-716): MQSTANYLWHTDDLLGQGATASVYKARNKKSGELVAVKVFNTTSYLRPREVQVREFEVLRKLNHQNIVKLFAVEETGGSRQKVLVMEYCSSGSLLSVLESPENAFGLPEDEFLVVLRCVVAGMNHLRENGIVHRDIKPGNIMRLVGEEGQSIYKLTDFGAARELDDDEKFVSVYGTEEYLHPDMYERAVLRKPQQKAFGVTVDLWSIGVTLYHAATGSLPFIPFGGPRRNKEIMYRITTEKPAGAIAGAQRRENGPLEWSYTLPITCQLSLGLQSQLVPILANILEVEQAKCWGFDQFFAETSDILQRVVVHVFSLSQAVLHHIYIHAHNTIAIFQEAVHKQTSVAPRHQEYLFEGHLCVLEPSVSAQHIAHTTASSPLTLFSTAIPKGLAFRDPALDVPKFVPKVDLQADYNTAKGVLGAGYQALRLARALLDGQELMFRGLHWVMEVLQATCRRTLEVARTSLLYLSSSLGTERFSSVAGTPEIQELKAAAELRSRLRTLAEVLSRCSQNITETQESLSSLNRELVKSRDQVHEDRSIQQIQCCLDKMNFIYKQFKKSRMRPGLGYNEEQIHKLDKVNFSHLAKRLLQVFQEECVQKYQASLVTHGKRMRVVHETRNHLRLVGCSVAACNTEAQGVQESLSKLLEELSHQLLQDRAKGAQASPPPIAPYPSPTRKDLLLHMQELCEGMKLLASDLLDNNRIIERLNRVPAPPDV

[2] = read-out: Talazoparib (BMN 673) / %Ctrl @ 10000nM
[3] = read-out: Olaparib / %Ctrl @ 10000nM
[4] = read-out: Rucaparib / %Ctrl @ 10000nM, binding competition, % of control
[5] = read-out: Niraparib (MK-4827) / %Ctrl @ 10000nM

HIPK2, sequence (Q9H2X6 whole entry): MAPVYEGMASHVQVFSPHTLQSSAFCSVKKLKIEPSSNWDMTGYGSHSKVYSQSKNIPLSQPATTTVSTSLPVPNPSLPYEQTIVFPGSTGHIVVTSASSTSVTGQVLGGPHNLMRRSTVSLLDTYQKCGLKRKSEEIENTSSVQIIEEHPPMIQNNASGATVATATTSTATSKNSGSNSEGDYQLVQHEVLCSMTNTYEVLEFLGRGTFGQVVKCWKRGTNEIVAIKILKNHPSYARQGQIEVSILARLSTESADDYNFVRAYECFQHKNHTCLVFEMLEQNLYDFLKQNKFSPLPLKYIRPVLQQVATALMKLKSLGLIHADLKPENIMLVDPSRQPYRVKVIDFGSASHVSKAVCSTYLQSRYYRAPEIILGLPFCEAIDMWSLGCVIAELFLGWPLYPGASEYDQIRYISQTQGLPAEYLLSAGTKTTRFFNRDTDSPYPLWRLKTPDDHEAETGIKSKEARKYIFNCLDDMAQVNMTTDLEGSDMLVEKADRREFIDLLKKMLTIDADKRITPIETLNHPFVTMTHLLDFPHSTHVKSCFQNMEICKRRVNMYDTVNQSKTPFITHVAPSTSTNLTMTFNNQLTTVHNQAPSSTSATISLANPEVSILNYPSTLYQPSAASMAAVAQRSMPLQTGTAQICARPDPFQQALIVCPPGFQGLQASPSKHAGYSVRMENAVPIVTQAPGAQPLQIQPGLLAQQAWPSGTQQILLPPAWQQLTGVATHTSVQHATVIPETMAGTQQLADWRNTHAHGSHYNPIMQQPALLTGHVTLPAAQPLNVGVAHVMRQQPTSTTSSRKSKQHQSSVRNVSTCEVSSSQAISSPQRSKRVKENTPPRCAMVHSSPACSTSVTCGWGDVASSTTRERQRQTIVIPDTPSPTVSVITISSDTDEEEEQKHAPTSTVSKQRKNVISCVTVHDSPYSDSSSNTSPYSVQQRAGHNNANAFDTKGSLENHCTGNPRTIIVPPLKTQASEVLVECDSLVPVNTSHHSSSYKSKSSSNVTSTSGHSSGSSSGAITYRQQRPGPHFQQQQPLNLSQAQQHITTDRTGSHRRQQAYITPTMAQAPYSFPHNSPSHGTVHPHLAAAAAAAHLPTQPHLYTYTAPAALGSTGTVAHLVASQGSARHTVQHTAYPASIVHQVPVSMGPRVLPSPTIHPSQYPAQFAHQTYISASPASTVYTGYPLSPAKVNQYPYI
LCK, sequence (P06239 whole entry): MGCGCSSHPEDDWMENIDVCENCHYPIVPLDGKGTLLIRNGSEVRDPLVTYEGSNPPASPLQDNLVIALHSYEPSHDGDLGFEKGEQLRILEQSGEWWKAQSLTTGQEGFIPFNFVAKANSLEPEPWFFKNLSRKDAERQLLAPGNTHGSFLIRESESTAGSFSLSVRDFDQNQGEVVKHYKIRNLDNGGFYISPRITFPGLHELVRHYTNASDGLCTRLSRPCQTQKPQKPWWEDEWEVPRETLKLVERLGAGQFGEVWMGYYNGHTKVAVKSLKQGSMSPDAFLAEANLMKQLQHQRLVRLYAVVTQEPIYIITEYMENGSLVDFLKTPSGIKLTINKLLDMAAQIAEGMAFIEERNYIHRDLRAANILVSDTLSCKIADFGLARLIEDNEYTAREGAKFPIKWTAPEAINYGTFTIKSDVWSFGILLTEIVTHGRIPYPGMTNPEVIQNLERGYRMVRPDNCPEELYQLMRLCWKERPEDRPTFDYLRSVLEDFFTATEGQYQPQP

SMILES: Cn1ncnc1[C@H]1c2n[nH]c(=O)c3cc(F)cc(c23)N[C@@H]1c1ccc(F)cc1 [Talazoparib]
- percent of control binding at 10 µM (HIPK2; [2]): 99%
- percent of control binding at 10 µM (GRK7; [2]): 100%
- percent of control binding at 10 µM (EPHB4; [2]): 100%
- percent of control binding at 10 µM (LCK; [2]): 90%
- percent of control binding at 10 µM [1, 2]: 73%
- percent of control binding at 10 µM (IKK-epsilon; [2]): 90%

SMILES: O=C(c1cc(Cc2n[nH]c(=O)c3ccccc23)ccc1F)N1CCN(C(=O)C2CC2)CC1 [Olaparib]
- percent of control binding at 10 µM (HIPK2; [3]): 95%
- percent of control binding at 10 µM (GRK7; [3]): 85%
- percent of control binding at 10 µM (EPHB4; [3]): 90%
- percent of control binding at 10 µM (LCK; [3]): 100%
- percent of control binding at 10 µM [1, 3]: 98%
- percent of control binding at 10 µM (IKK-epsilon; [3]): 70%

SMILES: CNCc1ccc(-c2[nH]c3cc(F)cc4c3c2CCNC4=O)cc1 [Rucaparib]
- percent of control binding at 10 µM (HIPK2; [4]): 5.1%
- percent of control binding at 10 µM (GRK7; [4]): 48%
- percent of control binding at 10 µM (EPHB4; [4]): 95%
- percent of control binding at 10 µM (LCK; [4]): 95%
- percent of control binding at 10 µM [1, 4]: 62%
- percent of control binding at 10 µM (IKK-epsilon; [4]): 73%

SMILES: NC(=O)c1cccc2cn(-c3ccc([C@@H]4CCCNC4)cc3)nc12 [Niraparib]
- percent of control binding at 10 µM (HIPK2; [5]): 1.1%
- percent of control binding at 10 µM (GRK7; [5]): 88%
- percent of control binding at 10 µM (EPHB4; [5]): 91%
- percent of control binding at 10 µM (LCK; [5]): 82%
- percent of control binding at 10 µM [1, 5]: 58%
- percent of control binding at 10 µM (IKK-epsilon; [5]): 76%

From article PMC7026418, “The kinase polypharmacology landscape of clinical PARP inhibitors” (Scientific Reports, 2020)
